In data set [1] the target is T1, DBH (Homo sapiens, UniProt P09172).
T1 sequence (P09172 1-617): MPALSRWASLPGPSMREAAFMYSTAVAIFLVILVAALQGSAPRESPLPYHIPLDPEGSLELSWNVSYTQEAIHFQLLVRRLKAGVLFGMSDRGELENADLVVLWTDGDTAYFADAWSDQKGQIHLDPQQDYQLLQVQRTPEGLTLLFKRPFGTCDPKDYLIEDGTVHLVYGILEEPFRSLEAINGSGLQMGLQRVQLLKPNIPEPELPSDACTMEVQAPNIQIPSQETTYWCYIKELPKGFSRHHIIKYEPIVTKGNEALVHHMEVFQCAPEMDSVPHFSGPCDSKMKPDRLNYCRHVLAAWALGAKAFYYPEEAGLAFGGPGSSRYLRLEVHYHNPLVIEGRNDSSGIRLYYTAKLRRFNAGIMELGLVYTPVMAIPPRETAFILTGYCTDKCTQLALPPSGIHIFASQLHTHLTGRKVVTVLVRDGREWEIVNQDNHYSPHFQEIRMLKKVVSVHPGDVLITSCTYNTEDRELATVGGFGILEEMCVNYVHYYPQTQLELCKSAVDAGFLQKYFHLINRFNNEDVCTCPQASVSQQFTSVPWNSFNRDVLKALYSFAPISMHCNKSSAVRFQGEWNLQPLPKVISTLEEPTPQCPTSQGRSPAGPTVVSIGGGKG
The data set is described as follows: in vitro DBH inhibition, conversion of tyramine to octopamine in the presence of DBH. Type of data set: biochemical. As to conditions: concentration at which DBH activity was halved; octopamine assayed by absorbence at 330 nm; read-out: DBH IC₅₀. The protocol: Listed in Table I are compounds of the invention that were tested for in vitro DBH inhibition by a standard procedure for assaying conversion of tyramine to octopamine in the presence of DBH. J.J. Pisano, et al., Biochim. Biophys. Acta, 43, 566-568 (1960). Octopamine was assayed following sodium periodate oxidation to p-hydroxybenzaldehyde by measuring spectrophotometric absorbence at 330 nm. In Table I, inhibition is given in molar concentration of compound at which DBH activity was halved (IC₅₀). Fusaric acid, by this test has an IC₅₀ of 8 x 10⁻⁷M.

The subject of data set [2] is spontaneously hypertensive rats. The data set can be described thus: mean arterial blood pressure in spontaneously hypertensive rats. As to conditions: 50 mg/kg intraperitoneally, vs vehicle-treated controls. Type of data set: in vivo. The protocol:
Further, spontaneously hypertensive rats were treated with 3-(3-fluorophenylmethyl)-2-thiazolidinethione at a dose of 50 mg/kg intraperitoneally, and mean arterial blood pressure was monitored for 250 minutes using indwelling cannulae in the tail arteries. […] The maximal blood pressure reduction was approximately 20 mmHg.

For data set [3] the following is noted: in vitro screen; Weiffen et al., 1967; cited from earlier work.
The conditions of data set [4]: Teresawa et al., 1971; cited from earlier work.
The target of data set [5] is T1, DBH. Conditions: Runti et al., 1980; cited from earlier work.

We go through six compounds from EP0371733A2, “Dopamine-beta-hydroxylase inhibitors” (SMITHKLINE BEECHAM CORPORATION, priority 1988, dated 1990).

`Fc1cc(F)cc(CN2CCSC2=S)c1` [3-(3,5-Difluorophenylmethyl)-2-thiazolidinethione]: the IC50 on DBH [1] was determined as 13 ± 1 µM.
Turning to `Fc1cccc(CN2CCSC2=S)c1` [3-(3-Fluorophenylmethyl)-2-thiazolidinethione], at DBH [1], the IC50 was found to be 30 ± 3 µM. Also, the “maximal blood pressure reduction” value in data set [2] (mean arterial blood pressure monitored for 250 minutes) is reported as “approximately 20 mmHg”. For the same compound, the “time to significant blood pressure reductions following treatment” value in data set [2] was at most 30 min.
As for `S=C1SCCN1Cc1ccccc1` [3-Phenylmethyl-2-thiazolidinethione], at DBH [1], the IC50 came out at 72 ± 13 µM. Further, in data set [3], the tuberculostatic activity result is given as “poor activity”.
For the compound `S=C1SCCN1CCc1ccccc1` [3-phenethylthiazolidinethione, reference compound], the tuberculostatic activity entry in data set [3] is recorded as “poor activity”.
`CCCCc1ccc(C(=O)O)nc1` [Fusaric acid]: the toxic effects entry in data set [4] is reported as “hepatotoxic”.
In the case of phenylpicolinic acid, the “inhibitory activity relative to fusaric acid” value on DBH [5] is on record as “twice the inhibitory activity of fusaric acid”.
